# Assay results: PubChem BioAssay AID1645867 (Buhrlage Lab, Dana-Farber Cancer Institute and Novartis …, 2021)
# Activity calls are given as the source filed them. The rule behind the calls is not given here. Numbered stars: 1 amine (or outer) side, 2 acyl side, 3 side chain; on linkers, the order of the positions; unused ones are H or OH. Square brackets hold non-standard residues; d marks the D form. Peptide text beside a SMILES is read from it. ξ: configuration not given here. ξβ3hGly(undecyl) = CCCCCCCCCCCC(CC(=O)[*:2])N[*:1]
# Target: Ubiquitin carboxyl-terminal hydrolase isozyme L1 (Homo sapiens) (UniProt P09936)
# Sequence (P09936 whole entry, looked up): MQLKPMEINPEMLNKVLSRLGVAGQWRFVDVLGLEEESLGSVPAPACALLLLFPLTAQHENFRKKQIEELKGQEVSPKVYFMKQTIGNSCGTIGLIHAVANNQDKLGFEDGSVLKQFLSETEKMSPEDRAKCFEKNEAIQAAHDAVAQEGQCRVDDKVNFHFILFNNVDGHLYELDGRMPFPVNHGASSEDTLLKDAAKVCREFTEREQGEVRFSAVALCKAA
# Assay: biochemical concentration-response of UCH-L1 DUB inhibitors, hit verification (AID 1645867)
# Details: recombinant UCHL1 deubiquitinase activity assay
row,Structure (SMILES),IC50
1,O=C(Nc1ccc(F)cc1)N1C[C@@H]2c3nccn3-c3ccccc3[C@@H]2C1,> 25 µM (inactive)
2,COc1ccccc1-c1nc(-c2cn(-c3ccc(F)cc3)nn2)no1,> 25 µM (inactive)
3,COc1cc(OC)cc(N2C(=O)N(CC(=O)c3ccc(Br)cc3)c3ccccc3S2(=O)=O)c1,> 25 µM (inactive)
4,O=c1[nH]oc(O)c1-c1ncc(C(F)(F)F)cc1Cl,> 25 µM (inactive)
5,O=C1C=C(O)c2c(O)cccc2C1=O,> 25 µM (inactive)
6,CC(C)NC(=O)Cn1ccn2nc(-c3ccc(Cl)cc3)cc2c1=O,> 25 µM (inactive)
7,O=C(NCc1ccco1)c1cccc(S(=O)(=O)N2CC(c3ccccc3)CC2=O)c1 (stereo not given),> 25 µM (inactive)
8,Cc1c(-c2nsc(NC(=O)c3ccc(Cl)cc3)n2)nnn1-c1ccccc1F,> 25 µM (inactive)
9,Cc1ncc(CO)c2c1Oc1nc(-c3cccc(Cl)c3)nc(SCC(=O)N3CCCCC3)c1C2,> 25 µM (inactive)
10,Cc1ccc(NC(=O)Nc2ccc(C)n(CC(=O)Nc3ccc(C)c(C)c3)c2=O)cc1,> 25 µM (inactive)
11,COc1ccc(NC(=O)[C@H](C)NC(=O)c2cc3c(OC)cccc3[nH]2)cc1Cl,> 25 µM (inactive)
12,O=C(O)c1c(CNC2CCCCCC2)c2ccccc2n1Cc1ccc(F)cc1,> 25 µM (inactive)
13,CCOc1ccc(NC(=O)Cn2c(=O)n(CCCCCC(=O)NCc3ccc(F)cc3)c(=O)c3sccc32)cc1,> 25 µM (inactive)
14,O=C(COc1ccc(N2CC(C(=O)NCc3ccc4c(c3)OCO4)CC2=O)cc1)Nc1ccc(Cl)cc1 (stereo not given),> 25 µM (inactive)
15,CCOc1ccc(C(c2c(NC(=O)c3ccccc3)sc(C)c2C)N2CCN(CCO)CC2)cc1 (stereo not given),> 25 µM (inactive)
16,COc1ccc(NC(=O)Cn2c(=O)n(CCC(=O)NCc3ccccc3)c(=O)c3sccc32)cc1Cl,> 25 µM (inactive)
17,COc1ccccc1Nc1ncc(C(=O)NCCc2ccc(Cl)cc2)c2ccccc12,> 25 µM (inactive)
18,COc1cc(Cl)c(NC(=O)c2cc(-c3ccccn3)n[nH]2)c(OC)c1,> 25 µM (inactive)
19,O=C(Nc1cnc(-c2cccc(Cl)c2)nc1)C1CCC1,> 25 µM (inactive)
20,COc1cccc(CNc2ccc(-c3nc(-c4ccccc4)no3)nn2)c1,> 25 µM (inactive)
21,O=c1c2cc(Br)ccc2[nH]c(=S)n1Cc1cccnc1,> 25 µM (inactive)
22,O=C(COc1ccc(N2CC(C(=O)NCc3ccccc3)CC2=O)cc1)Nc1ccccc1Cl (stereo not given),> 25 µM (inactive)
23,CC(C)=CCC(O)C1=CC(=O)c2c(O)ccc(O)c2C1=O (stereo not given),3.09 µM

row,Structure (SMILES),IC50
1,Cc1cc(C)n2nc(Cc3ccccc3)nc2n1,> 25 µM (inactive)
2,COC(=O)c1ccc2c(=O)n(CCCCCC(=O)NCCc3ccc(S(N)(=O)=O)cc3)c(=O)[nH]c2c1,> 25 µM (inactive)
3,Cc1ccc(C2CN3C(=O)CN(C4CC4)C(=O)[C@]3(C)c3[nH]c4ccccc4c32)cc1 (stereo not given in full),> 25 µM (inactive)
4,Cc1ccccc1NC(=O)Cn1cc(S(=O)(=O)Cc2ccccc2)c2ccccc21,> 25 µM (inactive)
5,O=C(Nc1ccc(-c2cn3ccsc3n2)cc1)c1ccc(Cl)c([N+](=O)[O-])c1,> 25 µM (inactive)
6,Cc1cc(NC(=O)c2cc(-c3cccnc3)n[nH]2)ccc1Br,> 25 µM (inactive)
7,Cc1ccc(Cn2c(C(=O)O)c(CNCc3cccnc3)c3ccccc32)cc1,> 25 µM (inactive)
8,O=C(CSc1nc2cc(C(F)(F)F)ccc2s1)NCC(=O)c1ccccc1,> 25 µM (inactive)
9,O=C(Cn1c(COc2ccccc2)nc2ccccc21)Nc1cc(Cl)cc(Cl)c1,> 25 µM (inactive)
10,Brc1ccc(Sc2cnns2)cc1,> 25 µM (inactive)
11,FC(F)(F)c1ccc(Nc2nnnc3ccccc23)cc1,> 25 µM (inactive)
12,CCCCCCCCCCCC1CC(=O)NC(CC(N)=O)C(=O)NC(Cc2ccc(O)cc2)C(=O)NC(CC(N)=O)C(=O)NC(CCC(N)=O)C(=O)N2CCCC2C(=O)NC(CC(N)=O)C(=O)NC(CO)C(=O)N1 (stereo not drawn) (cyclo([ξβ3hGly(undecyl)]NYNQPNS); configuration not given here),> 25 µM (inactive)
13,COc1cccc(NC(=O)Cn2c3ccccc3n3c(=O)cc(-c4ccccc4)nc23)c1,> 25 µM (inactive)
14,COc1ccc(NC(=O)Cn2cc(C(=O)c3ccc(Cl)cc3)c(=O)c3cc(F)ccc32)cc1,> 25 µM (inactive)
15,COc1ccc(CNC(=O)c2ccc3c(=O)nc4c(-c5cccc(C)c5)n[nH]n4c3c2)cc1,> 25 µM (inactive)
16,Cc1nn(-c2ccccc2)c2c1N=C1C(Cl)=CC(Cl)=CN1C21C(=O)Nc2ccccc21 (stereo not given),3.72 µM
17,O=C(CSc1ccc(-c2cccc([N+](=O)[O-])c2)nn1)Nc1cccc(F)c1,> 25 µM (inactive)
18,COc1cn(-c2ccc(F)cc2)nc1C(=O)Nc1ccc(Cl)cc1Cl,23.2 µM
19,Cn1c(CNS(=O)(=O)c2ccc(Br)cc2)nnc1SCc1ccc(Cl)c(Cl)c1,> 25 µM (inactive)
20,COc1ccc(CNC(=O)CCCc2nnc3c(=O)n(-c4cc(C)cc(C)c4)ccn23)cc1,> 25 µM (inactive)
21,CCn1cc2c(n1)c(=O)n(Cc1ccccc1)c(=O)n2CC(=O)Nc1ccc(C)cc1C,> 25 µM (inactive)
22,O=C(COc1ccc(Cl)cc1Cl)Nc1ccccc1-c1nc2ccccc2[nH]1,> 25 µM (inactive)
